Patent US20240122182A1, “PESTICIDALLY ACTIVE HETEROCYCLIC DERIVATIVES WITH SULFUR CONTAINING SUBSTITUENTS” (SYNGENTA CROP PROTECTION AG, priority 2021, published 2024)

Key:
Assay type in all cases: in vivo
[1] = system: Plutella xylostella (Diamond Back Moth); assay: Activity against Plutella xylostella (diamond back moth), artificial diet; details: 192 h, application rate of 200 ppm, eggs, 8 days after infestation, read-out: effect in at least one of the two categories (mortality or growth inhibition)
Experimental: 24-well microtiter plates with artificial diet were treated with aqueous test solutions prepared from 10′000 ppm DMSO stock solutions by pipetting. After drying, Plutella eggs were pipetted through a plastic stencil onto a gel blotting paper and the plate was closed with it. The samples were assessed for mortality and growth inhibition in comparison to untreated samples 8 days after infestation.

[2] = system: Myzus persicae (Green Peach Aphid); assay: Activity against Myzus persicae (green peach aphid), feeding/contact activity; details: 144 h, application rate of 200 ppm, mixed ages, 6 days after infestation
Experimental: Sunflower leaf discs were placed onto agar in a 24-well microtiter plate and sprayed with aqueous test solutions prepared from 10′000 ppm DMSO stock solutions. After drying, the leaf discs were infested with an aphid population of mixed ages. The samples were assessed for mortality 6 days after infestation.

[3] = system: Chilo suppressalis (Striped Rice Stemborer); assay: Activity against Chilo suppressalis (striped rice stemborer), artificial diet; details: 144 h, application rate of 200 ppm, L2 larvae, 6 days after infestation, read-out: control (mortality, anti-feeding effect, growth inhibition)
Experimental: 24-well microtiter plates with artificial diet were treated with aqueous test solutions prepared from 10′000 ppm DMSO stock solutions by pipetting. After drying, the plates were infested with L2 larvae (6-8 per well). The samples were assessed for mortality, anti-feeding effect, and growth inhibition in comparison to untreated samples 6 days after infestation. Control of Chilo suppressalis by a test sample is given when at least one of the categories mortality, anti-feedant effect, and growth inhibition is higher than the untreated sample.

[4] = system: Diabrotica Balteata (Corn Root Worm); assay: Activity against Diabrotica balteata (corn root worm), maize sprouts sprayed; details: 96 h, application rate of 200 ppm, L2 larvae, 4 days after infestation, read-out: effect in at least one of the two categories (mortality or growth inhibition)
Experimental: Maize sprouts placed onto an agar layer in 24-well microtiter plates were treated with aqueous test solutions prepared from 10′000 ppm DMSO stock solutions by spraying. After drying, the plates were infested with L2 larvae (6 to 10 per well). The samples were assessed for mortality and growth inhibition in comparison to untreated samples 4 days after infestation.

[5] = system: Spodoptera littoralis (Egyptian Cotton Leaf Worm); assay: Activity against Spodoptera littoralis (Egyptian cotton leaf worm), cotton leaf discs sprayed; details: foliar, 72 h, application rate of 200 ppm, L1 larvae, 3 days after infestation, read-out: control (mortality, anti-feeding effect, growth inhibition)
Experimental: Cotton leaf discs were placed onto agar in 24-well microtiter plates and sprayed with aqueous test solutions prepared from 10′000 ppm DMSO stock solutions. After drying the leaf discs were infested with five L1 larvae. The samples were assessed for mortality, anti-feeding effect, and growth inhibition in comparison to untreated samples 3 days after infestation. Control of Spodoptera littoralis by a test sample is given when at least one of the categories mortality, anti-feedant effect, and growth inhibition is higher than the untreated sample.

[6] = system: Carpocapsa (Cydia) Pomonella (Codling Moth); assay: Activity against Carpocapsa (Cydia) pomonella (codling moth), larvicide, feeding/contact; details: 336 h, application rate of 12.5 ppm, L1 larvae, 14 days after infestation, read-out: effect in at least one of the two categories (mortality or growth inhibition)
Experimental: Diet cubes coated with paraffin were sprayed with diluted test solutions in an application chamber. After drying off the treated cubes (10 replicates) were infested with 1 L1 larvae. Samples were incubated at 26-27° C. and checked 14 days after infestation for mortality and growth inhibition. The following compounds gave an effect of at least 80% in at least one of the two categories (mortality or growth inhibition) at an application rate of 12.5 ppm: P1, P2, P3, P5, P9, P10, P11, P12, P14, P17, P19, P20, P21, P23, P24, P30, P31.

[7] = system: Nilaparvata lugens (Brown Plant Hopper); assay: Activity against Nilaparvata lugens (brown plant hopper), larvicide, systemic into water; details: 168 h, application rate of 12.5 ppm, N3 nymphs, 7 days after infestation
Experimental: Larvicide, systemic into water Rice plants cultivated in a nutritive solution were treated with the diluted test solutions into nourishing cultivation system. 1 day after application plants were infested with ˜20 N3 nymphs. 7 days after infestation samples were assessed for mortality and growth regulation.

[8] = system: Euschistus heros (Neotropical Brown Stink Bug); assay: Activity against Euschistus heros (neotropical brown stink bug), soybean leaves sprayed; details: 120 h, application rate of 200 ppm, N2 nymphs, 5 days after infestation, read-out: effect in at least one of the two categories (mortality or growth inhibition)
Experimental: Soybean leaves on agar in 24-well microtiter plates were sprayed with aqueous test solutions prepared from 10′000 ppm DMSO stock solutions. After drying the leaves were infested with N2 nymphs. The samples were assessed for mortality and growth inhibition in comparison to untreated samples 5 days after infestation.

CCS(=O)(=O)c1ccc(-n2cncn2)nc1-c1cc2c(cn1)N(CC(F)(F)C(F)(F)F)C(=O)OC2 [P16, 6-[3-ethylsulfonyl-6-(1,2,4-triazol-1-yl)-2-pyridyl]-1-(2,2,3,3,3-pentafluoropropyl)-4H-pyrido[3,4-d][1,3]oxazin-2-one]
≥ 80%: percent effect (mortality or growth inhibition) at 200 ppm [1] | mortality at 200 ppm [2] | mortality at 200 ppm [3] | percent effect (mortality or growth inhibition) at 200 ppm [4] | mortality at 200 ppm [5]

CCS(=O)(=O)c1cc(OCC(C)(F)F)cnc1-c1cc2c(cn1)N(CC(F)(F)C(F)(F)F)C(=O)OC2 [P31, 6-[5-(2,2-difluoropropoxy)-3-ethylsulfonyl-2-pyridyl]-1-(2,2,3,3,3-pentafluoropropyl)-4H-pyrido[3,4-d][1,3]oxazin-2-one]
≥ 80%: percent effect (mortality or growth inhibition) at 200 ppm [1] | percent effect (mortality or growth inhibition) at 12.5 ppm [6] | mortality at 200 ppm [3] | mortality at 12.5 ppm [7] | percent effect (mortality or growth inhibition) at 200 ppm [4] | mortality at 200 ppm [5]

CCSc1cc(OCC(C)(F)F)cnc1-c1cc2c(cn1)N(CC(F)(F)C(F)(F)F)C(=O)OC2 [P27, 6-[5-(2,2-difluoropropoxy)-3-ethylsulfanyl-2-pyridyl]-1-(2,2,3,3,3-pentafluoropropyl)-4H-pyrido[3,4-d][1,3]oxazin-2-one]
≥ 80%: percent effect (mortality or growth inhibition) at 200 ppm [1] | mortality at 200 ppm [3] | percent effect (mortality or growth inhibition) at 200 ppm [8] | percent effect (mortality or growth inhibition) at 200 ppm [4] | mortality at 200 ppm [5]

CCS(=O)(=O)c1cc(Oc2ccccn2)cnc1-c1cc2c(cn1)N(CC(F)(F)C(F)(F)F)C(=O)CC2 [P21, 6-[3-ethylsulfonyl-5-(2-pyridyloxy)-2-pyridyl]-1-(2,2,3,3,3-pentafluoropropyl)-3,4-dihydro-1,7-naphthyridin-2-one]
≥ 80%: percent effect (mortality or growth inhibition) at 200 ppm [1] | percent effect (mortality or growth inhibition) at 12.5 ppm [6] | mortality at 200 ppm [3] | percent effect (mortality or growth inhibition) at 200 ppm [8] | percent effect (mortality or growth inhibition) at 200 ppm [4] | mortality at 200 ppm [5]

CCS(=O)(=O)c1cc(-n2ccc(Cl)n2)cnc1-c1cc2c(cn1)N(CC(F)(F)C(F)(F)F)C(=O)CC2 [P5, 6-[5-(3-chloropyrazol-1-yl)-3-ethylsulfonyl-2-pyridyl]-1-(2,2,3,3,3-pentafluoropropyl)-3,4-dihydro-1,7-naphthyridin-2-one]
≥ 80%: percent effect (mortality or growth inhibition) at 200 ppm [1] | percent effect (mortality or growth inhibition) at 12.5 ppm [6] | mortality at 200 ppm [3] | percent effect (mortality or growth inhibition) at 200 ppm [8] | percent effect (mortality or growth inhibition) at 200 ppm [4] | mortality at 200 ppm [5]

CCS(=O)(=O)c1cc(C2CC2)cnc1-c1cc2c(cn1)N(CC(F)(F)C(F)(F)F)C(=O)CC2 [P19, 6-(5-cyclopropyl-3-ethylsulfonyl-2-pyridyl)-1-(2,2,3,3,3-pentafluoropropyl)-3,4-dihydro-1,7-naphthyridin-2-one]
≥ 80%: percent effect (mortality or growth inhibition) at 200 ppm [1] | percent effect (mortality or growth inhibition) at 12.5 ppm [6] | mortality at 200 ppm [3] | mortality at 12.5 ppm [7] | percent effect (mortality or growth inhibition) at 200 ppm [4] | mortality at 200 ppm [5]

CCSc1cc(NC)cnc1-c1cc2c(cn1)N(CC(F)(F)C(F)(F)F)C(=O)OC2 [P28, 6-[3-ethylsulfanyl-5-(methylamino)-2-pyridyl]-1-(2,2,3,3,3-pentafluoropropyl)-4H-pyrido[3,4-d][1,3]oxazin-2-one]
≥ 80%: percent effect (mortality or growth inhibition) at 200 ppm [1]

CCSc1cc(OCC(C)(F)F)cnc1-c1cc2c(cn1)N(CC(F)(F)C(F)(F)F)C(=O)CC2 [P25, 6-[5-(2,2-difluoropropoxy)-3-ethylsulfanyl-2-pyridyl]-1-(2,2,3,3,3-pentafluoropropyl)-3,4-dihydro-1,7-naphthyridin-2-one]
≥ 80%: percent effect (mortality or growth inhibition) at 200 ppm [1] | mortality at 200 ppm [3] | percent effect (mortality or growth inhibition) at 200 ppm [4] | mortality at 200 ppm [5]

CCSc1cc(C2(C#N)CC2)cnc1-c1cc2c(cn1)N(CC(F)(F)F)C(=O)CC2 [P6, 1-[5-ethylsulfanyl-6-[2-oxo-1-(2,2,2-trifluoroethyl)-3,4-dihydro-1,7-naphthyridin-6-yl]-3-pyridyl]cyclopropanecarbonitrile]
≥ 80%: percent effect (mortality or growth inhibition) at 200 ppm [1] | mortality at 200 ppm [3] | percent effect (mortality or growth inhibition) at 200 ppm [8] | percent effect (mortality or growth inhibition) at 200 ppm [4] | mortality at 200 ppm [5]

CCSc1cc(C(C)(C)C#N)cnc1-c1cc2c(cn1)N(CC(F)(F)C(F)(F)F)C(=O)OC2 [P33, 2-[5-ethylsulfanyl-6-[2-oxo-1-(2,2,3,3,3-pentafluoropropyl)-4H-pyrido[3,4-d][1,3]oxazin-6-yl]-3-pyridyl]-2-methyl-propanenitrile]
≥ 80%: mortality at 200 ppm [3] | percent effect (mortality or growth inhibition) at 200 ppm [8] | percent effect (mortality or growth inhibition) at 200 ppm [4]

CCSc1cc(N(C)C(C)=O)cnc1-c1cc2c(cn1)N(CC(F)(F)C(F)(F)F)C(=O)OC2 [P29, N-[5-ethylsulfanyl-6-[2-oxo-1-(2,2,3,3,3-pentafluoropropyl)-4H-pyrido[3,4-d][1,3]oxazin-6-yl]-3-pyridyl]-N-methyl-acetamide]
≥ 80%: percent effect (mortality or growth inhibition) at 200 ppm [1] | mortality at 200 ppm [2] | mortality at 200 ppm [3] | mortality at 200 ppm [5]

CC[S+]([O-])c1cc(OCC(C)(F)F)cnc1-c1cc2c(cn1)N(CC(F)(F)C(F)(F)F)C(=O)OC2 (centres unmarked) [P32, 6-[5-(2,2-difluoropropoxy)-3-ethylsulfinyl-2-pyridyl]-1-(2,2,3,3,3-pentafluoropropyl)-4H-pyrido[3,4-d][1,3]oxazin-2-one]
≥ 80%: percent effect (mortality or growth inhibition) at 200 ppm [1] | percent effect (mortality or growth inhibition) at 200 ppm [4] | mortality at 200 ppm [5]

CCS(=O)(=O)c1ccc(-n2cncn2)nc1-c1cc2c(cn1)N(CC(F)(F)C(F)(F)F)C(=O)CC2 [P13, 6-[3-ethylsulfonyl-6-(1,2,4-triazol-1-yl)-2-pyridyl]-1-(2,2,3,3,3-pentafluoropropyl)-3,4-dihydro-1,7-naphthyridin-2-one]
≥ 80%: percent effect (mortality or growth inhibition) at 200 ppm [1] | mortality at 200 ppm [2] | mortality at 200 ppm [3] | percent effect (mortality or growth inhibition) at 200 ppm [4] | mortality at 200 ppm [5]

CCSc1cc(C(F)(F)F)cnc1-c1cc2c(cn1)N(CC(F)(F)C(F)(F)F)C(=O)OC2 [P26, 6-[3-ethylsulfanyl-5-(trifluoromethyl)-2-pyridyl]-1-(2,2,3,3,3-pentafluoropropyl)-4H-pyrido[3,4-d][1,3]oxazin-2-one]
≥ 80%: percent effect (mortality or growth inhibition) at 200 ppm [1] | mortality at 200 ppm [3] | percent effect (mortality or growth inhibition) at 200 ppm [4]

CCSc1cc(N(C)C(C)=O)cnc1-c1cc2c(cn1)N(CC(F)(F)C(F)(F)F)C(=O)CC2 [P7, N-[5-ethylsulfanyl-6-[2-oxo-1-(2,2,3,3,3-pentafluoropropyl)-3,4-dihydro-1,7-naphthyridin-6-yl]-3-pyridyl]-N-methyl-acetamide]
≥ 80%: mortality at 200 ppm [2]

CCSc1cc(C2(C#N)CC2)cnc1-c1cc2c(cn1)N(CC(F)(F)F)C(=O)OC2 [P35, 1-[5-ethylsulfanyl-6-[2-oxo-1-(2,2,2-trifluoroethyl)-4H-pyrido[3,4-d][1,3]oxazin-6-yl]-3-pyridyl]cyclopropanecarbonitrile]
≥ 80%: percent effect (mortality or growth inhibition) at 200 ppm [1] | percent effect (mortality or growth inhibition) at 200 ppm [4]
